Measurements reported in patent US12539326B2, “Methods for treating Alzheimer's disease using semaglutide” (Novo Nordisk A/S, priority 2019, dated 2026).

Legend:
SAMP8 mice [1] = assay: Step-through passive avoidance test (long-term memory) in SAMP8 mice; format: in vivo, mouse; settings: SAMP8 mice at 18 weeks of age, retention test, 30 nmol/kg s.c. once a day, mean
From the text: (§1) Here, SAMP8 mice were utilized to characterize the impact of semaglutide treatment on memory deficits and cognitive decline. Two behavioural tests commonly used to assess cognitive deficits in rodents were employed to assay effects on short-term memory (Y-maze test) and long-term memory (step-through passive avoidance test). The Y-maze is test of short-term memory, assessing spatial working memory and exploratory behaviour by measuring spontaneous alternations, which is the frequency of entering a new arm of the maze rather than returning to one that was previously visited (described in methods). The step-through passive avoidance test measures associative long-term memory by assessing the learning of an association of an aversive stimulus to a particular context (described in methods). SAMP8 mice have measurable deficits in both tests as they age.
The experiment was carried out using SAMP8 mice with the following treatment groups: SAMP8 vehicle treated (n=24) and SAMP8 semaglutide (30 nmol/kg) treated (n=11). […]
The step through passive avoidance performance was performed at 18 weeks of age. […] The step-through latency was recorded up to 300 s, defined as the time it took the mouse to enter the darkened compartment during the retention test. Escape latency was as recorded, defined as the time in the retention test to escape the darkened chamber following the application of a footshock.

[2] = test system: microglial inflammatory marker Iba1 in the hippocampus; assay: LPS-induced neuroinflammation in mice, Iba1 immunohistochemistry of the hippocampus; format: in vivo, mouse; settings: C57BL/6 mice, Day 28, LPS+semaglutide 30 nmol/kg s.c. once per day; mean, SEM 0.49%; LPS+vehicle 12.17%; p<0.01
From the text: LPS-induced neuroinflammation is used as a non-genetic model of Alzheimer's disease in rodents. LPS is an endotoxin from gram-negative bacteria that provides a persistent inflammatory stimulus activating brain immune cells (neuroimmune cells). Microglia are a brain immune cell type activated by LPS, and the degree of neuroinflammation can be assessed by the area of microglia in brain tissue as measured by the microglia-specific marker ionized calcium binding adaptor molecule 1 (Iba1).
Here, LPS-induced neuroinflammation in mice was used to assess the impact of semaglutide on attenuating brain inflammation in the hippocampus, a brain region involved in memory and learning which is deteriorated in Alzheimer's Disease.
The experiment was carried out using C57BL/6 mice at 8-10 weeks of age. […]
Immediately after termination, whole brains were collected for immunohistochemical (IHC) analyses of neuroinflammation markers. […] The primary antibody was detected using a linker secondary antibody followed by amplification using a polymeric HRP-linker antibody conjugate. […]
Quantitative assessment of Iba1 signal was performed to measure the area of microglia in the hippocampus of the tissue section. […] The quantitative estimates of IHC-positive staining were calculated as an area fraction (AF) of the total tissue area where: […]

SAMP8 mice [3] = assay: Y-maze test (short-term memory) in SAMP8 mice; format: in vivo, mouse; settings: SAMP8 mice at 16 weeks of age; 30 nmol/kg s.c. once a day; mean, SEM 1.6%; vehicle 42.8%; p<0.0001
From the text: as §1, with “age. […]” for “age.”
Testing in the Y-maze was performed at 8 weeks of age and 16 weeks of age, at approximately 15 and 71 days following treatment initiation respectively. […] The series of arm entries including possible returns into the same arm was monitored and alternation was defined as entries into all three arms on consecutive occasions. The number of maximum alternations was therefore the total number of arm entries minus two and the percentage of alternation was be calculated as (actual alternations/maximum alternations)×100.

[4] = test system: Patients with type 2 diabetes at high risk for or with established cardiovascular disease; assay: Dementia in pooled double-blind RCTs (LEADER, SUSTAIN-6, PIONEER 6), GLP-1 receptor agonist versus placebo; format: in vivo, human; settings: each RCT, active arm vs. placebo; for Dementia SMQ GLP-1 Receptor Agonists no. of events: median follow-up 3.8 years (LEADER), 2.1 years (SUSTAIN-6), 1.3 years (PIONEER 6)
Procedure: Exposure to GLP-1 receptor agonist and subsequent diagnosis of dementia was assessed in data sources with long term treatment exposure including three pooled double-blind randomized controlled trials (RCTs) and a nationwide cohort of patients with diabetes. This was done with the aim of investigating whether use of GLP-1 receptor agonists reduces the onset of dementia in patients with diabetes.
A triangulation approach integrating study designs and data sources with different key sources of potential bias was employed to obtain a more reliable answer. First, data was pooled from three large RCTs with GLP-1 receptor agonists; liraglutide (LEADER; 9,340 patients), subcutaneous semaglutide (SUSTAIN-6; 3,297 patients), and oral semaglutide (PIONEER 6; 3,183 patients). All three trials were multicenter, double-blind, placebo-controlled cardiovascular outcomes trials. Patients with type 2 diabetes at high risk for or with established cardiovascular disease were randomly assigned in a 1:1 ratio, to receive placebo or liraglutide (LEADER), or semaglutide (SUSTAIN-6; PIONEER 6) in addition to standard of care. In these trials, the treatment for diabetes (excluding GLP-1 receptor agonists, dipeptidyl peptidase-4 inhibitors (DPP4 inhibitors), and pramlintide) was adjusted or added in both arms, at the investigator's discretion, as previously described. The formulation tested in LEADER was an aqueous composition comprising liraglutide, disodium phosphate dihydrate, propylene glycol, and phenol at pH 8.15. The formulation tested in SUSTAIN-6 was an aqueous composition comprising semaglutide, disodium phosphate dihydrate, propylene glycol, and phenol at pH 7.4. The formulation tested in PIONEER was a tablet comprising semaglutide and SNAC. […]
For the pooled RCTs, an intention-to-treat analysis was performed using Cox regression with treatment assignment as the only explanatory variable to determine the hazard ratio for developing dementia with GLP-1 receptor agonists versus placebo. […] The incidence of dementia with death as competing risk was calculated using the Aalen-Johansen estimator.

## N-epsilon26-[2-(2-{2-[2-(2-{2-[(S)-4-Carboxy-4-(17-carboxyheptadecanoylamino)butyrylamino] ethoxy}ethoxy)acetylamino]ethoxy} ethoxy)acetyl][Aib8,Arg34]GLP-1-(7-37) [semaglutide]
SAMP8 mice [1]; SEM 3.0 seconds, vehicle 88.8 seconds, p=0.01
  escape latency: 19.0 s
SAMP8 mice [1]; SEM 14.5 seconds, vehicle 109.8 seconds, p<0.0001
  step-through latency: 260.5 s
[2]
  hippocampal Iba1 area (area fraction): 8.53%
SAMP8 mice [3]
  percentage alternation behaviour in the Y-maze: 79.1%
[4]; listed as Semaglutide (oral)
  Dementia SMQ GLP-1 Receptor Agonists no. of events: 0
[4]; listed as Semaglutide (s.c)
  Dementia SMQ GLP-1 Receptor Agonists no. of events: 3
[4]; unit not printed in table (b13 gives pooled rates per 1000 patient-years)
  Dementia SMQ GLP-1 Receptor Agonists rate: 0.88
